In the supplement of paper PMC11061612:

Columns and labels:
Assay in all cases: combination Emax (second highest fraction inhibited in the dose matrix, 72 h); higher = more inhibition; extreme values may be limits of the assay
[1] = tested on: C2BBe1 (Colorectal Carcinoma)
Outline: (§1)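 After 24 hours at 37°C and 5% CO2 in 1536-well plates, cells in DMEM/F12 or RPMI plus 10% FBS received two-drug dose matrices for 72 hours. Viability came from CellTiter-Glo 2.0 luminescence and was scaled as inhibition, anchored at 0 by vehicle wells and at 1 by blank wells. Combination Emax is taken as the second-highest inhibition in the matrix, and Bliss excess as the observed combination effect less EA + EB − EA·EB, with EA and EB the single-agent effects.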

[2] = tested on: BC-1 (B-Cell Non-Hodgkin's Lymphoma)
Outline: as §1

[3] = tested on: L-363 (Plasma Cell Myeloma)
Outline: as §1

[4] = tested on: NCI-H2009 (Lung Adenocarcinoma)
Outline: as §1

GCIY (Gastric Carcinoma) = tested on: GCIY (Gastric Carcinoma)
Outline: as §1

SK-N-DZ (Neuroblastoma) = tested on: SK-N-DZ (Neuroblastoma)
Outline: as §1

MG-63 (Osteosarcoma) = tested on: MG-63 (Osteosarcoma)
Outline: as §1

[5] = tested on: RPMI-8402 (T-Lymphoblastic Leukemia)
Outline: as §1

[6] = tested on: SCC90 (Head and Neck Carcinoma)
Outline: as §1

[7] = tested on: NCI-H1944 (Lung Adenocarcinoma)
Outline: as §1

DK-MG (Glioblastoma) = tested on: DK-MG (Glioblastoma)
Outline: as §1

[8] = tested on: JURL-MK1 (Chronic Myelogenous Leukemia)
Outline: as §1

[9] = tested on: TOV-21G (Ovarian Carcinoma)
Outline: as §1

[10] = tested on: OVKATE (Ovarian Carcinoma)
Outline: as §1

NCI-H2452 (Mesothelioma) = tested on: NCI-H2452 (Mesothelioma)
Outline: as §1

[11] = tested on: HT-1197 (Bladder Carcinoma)
Outline: as §1

[12] = tested on: MDA-MB-175-VII (Breast Carcinoma)
Outline: as §1

[13] = tested on: Daudi (Burkitt's Lymphoma)
Outline: as §1

[14] = tested on: SNU-1 (Gastric Carcinoma)
Outline: as §1

[15] = tested on: NCI-H2023 (Non-Small Cell Lung Carcinoma)
Outline: as §1

## Cc1cc2ncnn2cc1Nc1ncc2c(n1)n(C1CCOCC1)c(=O)n2C [AZD7648] + CN(C)CCCOc1ccc(-c2ccc3ncc4c(c3c2)n(C2CCOCC2)c(=O)n4C)cn1 [AZD0156] (first compound max 10 µM, 7x7, partner max 1 µM)
[1]
  combination Emax: 0.211
[2]
  combination Emax: 0.634
[3]
  combination Emax: 0.393
[4]
  combination Emax: 0.14
GCIY (Gastric Carcinoma)
  combination Emax: 0.437
SK-N-DZ (Neuroblastoma)
  combination Emax: 0.31
MG-63 (Osteosarcoma)
  combination Emax: 0.331
[5]
  combination Emax: 0.382
[6]
  combination Emax: 0.353
[7]
  combination Emax: 0.29
DK-MG (Glioblastoma)
  combination Emax: 0.27
[8]
  combination Emax: 0.406
[9]
  combination Emax: 0.169
[10]
  combination Emax: 0.35
NCI-H2452 (Mesothelioma)
  combination Emax: 0.42
[11]
  combination Emax: 0.194
[12]
  combination Emax: 0.288
[13]
  combination Emax: 0.444
[14]
  combination Emax: 0.193
[15]
  combination Emax: 0.586

## CN(CCO)CC[C@H](CSc1ccccc1)Nc1ccc(S(=O)(=O)NC(=O)c2ccc(N3CCC([C@@H](O)c4ccccc4-c4ccc(Cl)cc4)CC3)cc2)cc1S(=O)(=O)C(F)(F)F [AZD4320] + C[C@@H]1COCCN1C2=NC(=NC(=C2)C3(CC3)[S@](=N)(=O)C)C4=C5C=CNC5=NC=C4 [AZD6738] (first compound max 1 µM, 7x7, partner max 10 µM)
[1]
  combination Emax: 0.494
[2]
  combination Emax: 0.901
[3]
  combination Emax: 0.853
[4]
  combination Emax: 0.543
GCIY (Gastric Carcinoma)
  combination Emax: 0.918
SK-N-DZ (Neuroblastoma)
  combination Emax: 1
MG-63 (Osteosarcoma)
  combination Emax: 0.525
[5]
  combination Emax: 1
[6]
  combination Emax: 0.535
[7]
  combination Emax: 0.993
DK-MG (Glioblastoma)
  combination Emax: 0.359
[8]
  combination Emax: 1
[9]
  combination Emax: 0.824
[10]
  combination Emax: 0.621
NCI-H2452 (Mesothelioma)
  combination Emax: 0.704
[11]
  combination Emax: 0.443
[12]
  combination Emax: 0.474
[13]
  combination Emax: 0.65
[14]
  combination Emax: 0.896
[15]
  combination Emax: 0.868

## C[C@@H](c1ccc2nccn2c1)n1nnc2ncc(-c3cnn(C)c3)nc21 [Savolitinib] + Cc1c2c(nn1C)CSCc1cc(n(C)n1)CSc1cc(c3ccccc3c1)OCCCc1c(C(=O)O)n(C)c3c-2c(Cl)ccc13 [AZD5991] (first compound max 1 µM, 7x7, partner max 1 µM)
[1]
  combination Emax: 0.134
[2]
  combination Emax: 1
[3]
  combination Emax: 0.992
[4]
  combination Emax: 0.217
GCIY (Gastric Carcinoma)
  combination Emax: 0.176
SK-N-DZ (Neuroblastoma)
  combination Emax: 0.255
MG-63 (Osteosarcoma)
  combination Emax: 0.257
[5]
  combination Emax: 0.502
[6]
  combination Emax: 0.454
[7]
  combination Emax: 0.184
DK-MG (Glioblastoma)
  combination Emax: 0.417
[8]
  combination Emax: 0.129
[9]
  combination Emax: 0.174
[10]
  combination Emax: 0.144
NCI-H2452 (Mesothelioma)
  combination Emax: 0.205
[11]
  combination Emax: 0.195
[12]
  combination Emax: 0.185
[13]
  combination Emax: 0.196
[14]
  combination Emax: 0.454
[15]
  combination Emax: 0.247

## Cc1cc2ncnn2cc1Nc1ncc2c(n1)n(C1CCOCC1)c(=O)n2C [AZD7648] + CCN(CCO)CCCOc1ccc2c(Nc3cc(CC(=O)Nc4cccc(F)c4)[nH]n3)ncnc2c1 [AZD2811] (first compound max 10 µM, 7x7, partner max 1 µM)
[1]
  combination Emax: 0.196
[2]
  combination Emax: 0.871
[3]
  combination Emax: 0.413
[4]
  combination Emax: 0.335
GCIY (Gastric Carcinoma)
  combination Emax: 0.49
SK-N-DZ (Neuroblastoma)
  combination Emax: 0.635
MG-63 (Osteosarcoma)
  combination Emax: 0.39
[5]
  combination Emax: 0.886
[6]
  combination Emax: 0.452
[7]
  combination Emax: 0.415
DK-MG (Glioblastoma)
  combination Emax: 0.273
[8]
  combination Emax: 0.601
[9]
  combination Emax: 0.327
[10]
  combination Emax: 0.27
NCI-H2452 (Mesothelioma)
  combination Emax: 0.497
[11]
  combination Emax: 0.291
[12]
  combination Emax: 0.323
[13]
  combination Emax: 0.508
[14]
  combination Emax: 0.239
[15]
  combination Emax: 0.534

## COc1cc2ncnc(Nc3ccc(F)c(Cl)c3)c2cc1OCCCN1CCOCC1 [Gefitinib] + CC(C)n1c(=O)n(C)c2cnc3cc(F)c(-c4ccc(OCCCN5CCCCC5)nc4)cc3c21 [AZD1390] (first compound max 10 µM, 7x7, partner max 0.3 µM)
[1]
  combination Emax: 0.288
[2]
  combination Emax: 0.601
[3]
  combination Emax: 0.148
[4]
  combination Emax: 0.119
GCIY (Gastric Carcinoma)
  combination Emax: 0.459
SK-N-DZ (Neuroblastoma)
  combination Emax: 0.19
MG-63 (Osteosarcoma)
  combination Emax: 0.202
[5]
  combination Emax: 0.56
[6]
  combination Emax: 0.699
[7]
  combination Emax: 0.19
DK-MG (Glioblastoma)
  combination Emax: 0.248
[8]
  combination Emax: 0.499
[9]
  combination Emax: 0.275
[10]
  combination Emax: 0.155
NCI-H2452 (Mesothelioma)
  combination Emax: 0.306
[11]
  combination Emax: 0.0774
[12]
  combination Emax: 0.93
[13]
  combination Emax: 0.392
[14]
  combination Emax: 0.239
[15]
  combination Emax: 0.151

## Cc1cc2ncnn2cc1Nc1ncc2c(n1)n(C1CCOCC1)c(=O)n2C [AZD7648] + C[C@@H]1COCCN1C2=NC(=NC(=C2)C3(CC3)[S@](=N)(=O)C)C4=C5C=CNC5=NC=C4 [AZD6738] (first compound max 10 µM, 7x7, partner max 10 µM)
[1]
  combination Emax: 0.311
[2]
  combination Emax: 0.941
[3]
  combination Emax: 0.849
[4]
  combination Emax: 0.339
GCIY (Gastric Carcinoma)
  combination Emax: 0.774
SK-N-DZ (Neuroblastoma)
  combination Emax: 0.949
MG-63 (Osteosarcoma)
  combination Emax: 0.503
[5]
  combination Emax: 0.988
[6]
  combination Emax: 0.325
[7]
  combination Emax: 0.77
DK-MG (Glioblastoma)
  combination Emax: 0.273
[8]
  combination Emax: 1
[9]
  combination Emax: 0.579
[10]
  combination Emax: 0.377
NCI-H2452 (Mesothelioma)
  combination Emax: 0.525
[11]
  combination Emax: 0.419
[12]
  combination Emax: 0.341
[13]
  combination Emax: 0.826
[14]
  combination Emax: 0.788
[15]
  combination Emax: 0.796

## Cc1nc(Nc2ncc(C(=O)Nc3c(C)cccc3Cl)s2)cc(N2CCN(CCO)CC2)n1 [Dasatinib] + CC(=O)Nc1cccc(-n2c(=O)n(C3CC3)c(=O)c3c(Nc4ccc(I)cc4F)n(C)c(=O)c(C)c32)c1 [Trametinib] (first compound max 2 µM, 7x7, partner max 1 µM)
[1]
  combination Emax: 0.692
[2]
  combination Emax: 0.418
[3]
  combination Emax: 0.146
[4]
  combination Emax: 0.916
GCIY (Gastric Carcinoma)
  combination Emax: 0.83
SK-N-DZ (Neuroblastoma)
  combination Emax: 0.192
MG-63 (Osteosarcoma)
  combination Emax: 0.734
[5]
  combination Emax: 0.307
[6]
  combination Emax: 0.846
[7]
  combination Emax: 0.65
DK-MG (Glioblastoma)
  combination Emax: 0.895
[8]
  combination Emax: 1
[9]
  combination Emax: 0.8
[10]
  combination Emax: 0.484
NCI-H2452 (Mesothelioma)
  combination Emax: 0.804
[11]
  combination Emax: 0.554
[12]
  combination Emax: 0.513
[13]
  combination Emax: 0.635
[14]
  combination Emax: 0.475
[15]
  combination Emax: 0.394

## C[C@@H](c1ccc2nccn2c1)n1nnc2ncc(-c3cnn(C)c3)nc21 [Savolitinib] + CC1(C)CCC(CN2CCN(c3ccc(C(=O)NS(=O)(=O)c4ccc(NCC5CCOCC5)c([N+](=O)[O-])c4)c(Oc4cnc5[nH]ccc5c4)c3)CC2)=C(c2ccc(Cl)cc2)C1 [Venetoclax] (first compound max 1 µM, 7x7, partner max 1 µM)
[1]
  combination Emax: 0.0814
[2]
  combination Emax: 0.209
[3]
  combination Emax: 0.0979
[4]
  combination Emax: 0.204
GCIY (Gastric Carcinoma)
  combination Emax: 0.213
SK-N-DZ (Neuroblastoma)
  combination Emax: 0.173
MG-63 (Osteosarcoma)
  combination Emax: 0.238
[5]
  combination Emax: 0.183
[6]
  combination Emax: 0.381
[7]
  combination Emax: 0.128
DK-MG (Glioblastoma)
  combination Emax: 0.352
[8]
  combination Emax: 0.127
[9]
  combination Emax: 0.116
[10]
  combination Emax: 0.155
NCI-H2452 (Mesothelioma)
  combination Emax: 0.174
[11]
  combination Emax: 0.173
[12]
  combination Emax: 0.2
[13]
  combination Emax: 0.109
[14]
  combination Emax: 0.188
[15]
  combination Emax: 0.261

## Cc1cc2ncnn2cc1Nc1ncc2c(n1)n(C1CCOCC1)c(=O)n2C [AZD7648] + C=CCn1c(=O)c2cnc(Nc3ccc(N4CCN(C)CC4)cc3)nc2n1-c1cccc(C(C)(C)O)n1 [AZD1775] (first compound max 10 µM, partner max 1 µM)
[1]
  combination Emax: 0.345
[2]
  combination Emax: 0.997
[3]
  combination Emax: 0.979
[4]
  combination Emax: 0.566
GCIY (Gastric Carcinoma)
  combination Emax: 0.49
SK-N-DZ (Neuroblastoma)
  combination Emax: 0.927
MG-63 (Osteosarcoma)
  combination Emax: 0.466
[5]
  combination Emax: 1
[6]
  combination Emax: 0.905
[7]
  combination Emax: 0.583
DK-MG (Glioblastoma)
  combination Emax: 0.43
[8]
  combination Emax: 0.99
[9]
  combination Emax: 0.56
[10]
  combination Emax: 0.422
NCI-H2452 (Mesothelioma)
  combination Emax: 0.663
[11]
  combination Emax: 0.521
[12]
  combination Emax: 0.38
[13]
  combination Emax: 0.809
[14]
  combination Emax: 0.628
[15]
  combination Emax: 0.703
